Assay results published in patent US8193333B2, “Cancer therapy using Bcl-Xl-specific siNA” (Centre Regional de Lutte Contre le Cancer-Centre Francois …, priority 2006, dated 2012).

Tests used:
SKOV3 cells [1] = test: Apoptosis induction in SKOV3 cells (cell and nuclear morphology after DAPI, caspase 3 activation and PARP cleavage by Western blot); format: cell-based, human; details: 24 h, combination with 20 μg/ml cisplatin
Experimental: (§1) Exponentially growing cells were exposed to CDDP for 2 hours at 37° C., in serum free medium. After exposure to the drug, the cell layers were rinsed and incubated in complete growth medium.
(§2) The siRNA duplexes were transfected according to the recommended procedure by using the Oligofectamine Reagent and Opti-MEM medium (INVITROGEN LIFE TECHNOLOGIES). 30-40% confluent cells were transfected in 25 cm^2 flasks with different concentrations of siXL1, siRNA Mcl-1 or siRNA control and incubated at 37° C., 5% CO2 for 4 hours. Next, 20% fetal bovin serum was added to reach a final concentration of 10% foetal bovin serum in the 25 cm^2 flask.
(§3) Cells were rinsed with ice cold PBS and lysed in 150 mM NaCl, 50 mM Tris-HCl pH 8, 1% Triton X100, 4 mM PMSF, 2 mM Aprotinin, 5 mM EDTA, 10 mM NaF, 10 mM NaPPi, 1 mM Na3VO4 for 30 min on ice. Lysates were clarified by centrifugation at 10000 g for 10 min at 4° C. and protein concentrations were determined using the Bradford assay (BIO-RAD). Equal amounts of total cellular protein (20 μg) were resolved in a Bis-tris-HCL buffered (pH 6.4) 4-12% polyacrylamide gel (NuPAGE® Novex® 4-12% Bis-tris gel, INVITROGEN) for 35 min at 200V and electrophoretically transferred on a PVDF membrane (MILLIPORE) for 75 min at 30V. The membrane was blocked for 1 hour at room temperature in T-TBS (132 mM NaCl, 20 mM Tris-HCl pH 7.6, 0.05% Tween 20) supplemented with 5% non-fat dry milk. The membrane was incubated for 1 hour at room temperature in T-TBS-milk with the following primary antibodies: anti-Bcl-XL/S (1:500, S18 SANTA-CRUZ BIOTECHNOLOGY), anti-PARP (1:1000, CELL-SIGNALING TECHNOLOGY), anti-caspase-3 (1:1000, BD BIOSCIENCES PHARMINGEN) anti-cleaved caspase-3 (1:1000, CELL-SIGNALING TECHNOLOGY), anti-alpha-tubulin (1:3000, SIGMA) and anti-Mcl-1 (1:750, S19 SANTA-CRUZ BIOTECHNOLOGY). After three washes with T-TBS, the membrane was incubated for 1 h at room temperature in T-TBS-milk with the adequate peroxidase conjugated secondary antibody (Anti-rabbit IgG, CELL-SIGNALING TECHNOLOGY, and anti-mouse IgG, AMERSHAM). After 3 washes with T-TBS and one with TBS, the immunoreactivity was detected by enhanced chemiluminescence (ECL kit, AMERSHAM).
(§4) After treatment, detached cells were collected separately and adherent cells were dissociated by trypsin/EDTA. Adherent and detached cells were then pooled and centrifuged at 1500×g for 5 min before being fixed in 70% ethanol. The cells were then collected on a polylysine-coated glass slide by cytocentrifugation, before a 30 min room temperature incubation in a 1 μg/ml DAPI aqueous solution (BOEHRINGER MANNHEIM). Slides were thereafter extensively washed in distilled water and mounted in Mowiol (CALBIO-CHEM).

[2] = tested on: intraperitoneal SKOV3 human ovarian adenocarcinoma; test: Survival of nude mice bearing intraperitoneal SKOV3 tumours; format: in vivo, Swiss/nude mice; details: siRNA 25 μg/kg, cisplatin 4 μg/kg intraperitoneal, treatment repeated one month later, FIG. 15
Experimental: 4-week-old female Swiss/nude mice were obtained from CHARLES-RIVER LABORATORIES and maintained in a pathogen-free environment. The mice were fed a standard laboratory diet and tap water ad libitum and kept a 23±1° C. with a 12 h light/dark cycle. Animal experiments in the present study were performed in compliance with the guidelines of the Federation of european laboratory animal science associations.
6-8 weeks old mice were implanted intraperitoneally with 2×10^7 ovarian adenocarcinoma SKOV3 cells. As described previously, this model reflects the i.p growth pattern of advanced ovarian cancer (Louis et al, Cancer Gene Therapy, 2006, 13, 367-374).
Twenty one days after tumour implantation, mice were allocated to one of the eight treatment groups (10 mice per group) summarized in Table II: • Group 1 comprised untreated animals. • Group 2 received intraperitoneal injection of 4 μg/kg cisplatin in 1 ml 0.9% NaCl solution. • Group 3 received intraperitoneal injection of 25 μg/kg control siRNA in 1 ml 0.9% NaCl. • Group 4 received intraperitoneal injection of 25 μg/kg Bcl-XL siRNA in 1 ml 0.9% NaCl. • Group 5 received intraperitoneal injection of 25 μg/kg control siRNA in 1 ml 0.9% NaCl and the following day 4 μg/kg of cisplatin in 1 ml 0.9% NaCl solution. • Group 6 received intraperitoneal injection of 4 μg/kg of cisplatin in 1 ml 0.9% NaCl solution and the following day 25 μg/kg control siRNA in 1 ml 0.9% NaCl. • Group 7 received intraperitoneal injection of 25 μg/kg Bcl-XL siRNA in 1 ml 0.9% NaCl and the following day 4 μg/kg of cisplatin in 1 ml 0.9% NaCl solution. • Group 8 received intraperitoneal injection of 4 μg/kg of cisplatin in 1 ml 0.9% NaCl solution and the following day 25 μg/kg Bcl-XL siRNA in 1 ml 0.9% NaCl.
The same treatment was repeated one month later. Mice were killed and autopsied when considered as moribund. Organs and tumours were formalin-fixed and paraffin-embedded for histological examination. At the end of the experiment, all surviving animals were sacrificed, and histological examination was performed in order to detect residual tumour nodes.

Bcl-XL protein = test: Western blot of Bcl-XL protein expression in tumour cell lines after siRNA transfection; format: cell-based, human; details: SKOV3 cells
Experimental: SKOV3, OAW42, OAW42-R10, IGROV1 and IGROV1-R10 human ovarian adenocarcinoma cell lines, GL15 glioblastoma cell line, and NCI-H28 mesothelioma cell line were obtained from ECACC or ATCC. OAW42, OAW42-R10 cells were grown in DMEM (GIBCO-BRL) supplemented with 10% foetal calf serum (GIBCO-BRL), 2 mM Glutamax™ (GIBCO-BRL), 1 mM sodium pyruvate (GIBCO-BRL), 20 UI/L human recombinant insulin (LILLY), 33 mM sodium bicarbonate and 20 mM HEPES All the other cell lines were grown in RPMI 1640 medium (GIBCO-BRL) supplemented with 10% foetal calf serum (GIBCO-BRL), 2 mM Glutamax™ (GIBCO-BRL), 33 mM sodium bicarbonate and 20 mM HEPES. Cells were maintained at 37° C. in a 5% CO2 humidified atmosphere, and split twice a week by trypsinization.
as §1, §2, §3

SKOV3 cells [3] = test: Cell mortality, viability, growth and cell cycle of SKOV3 cells (morphology, trypan blue exclusion, FACS of DNA content); format: cell-based, human; details: for cell death (morphology, FACS analysis of the cell cycle): cisplatin 5 or 20 μg/ml, siRNA 150 nM; for cellular and nuclear morphologies and cell cycle versus untransfected SKOV3 cells: alone 150 nM or in combination 75 nM each, 72 h after transfection, FIG. 13
Experimental: as §1, §2, §4
After treatment, detached cells were collected separately. Adherent cells were then harvested by trypsin/EDTA dissociation. Adherent and detached cells were then pooled and washed in PBS before being fixed in 70% ethanol and stored at −20° C. until analysis. Before flow cytometry analysis, the cells were washed in PBS and incubated for 30 min at room temperature in PBS in order to allow the release of low molecular weight (m.w.) DNA, characteristic of apoptotic cells. After a centrifugation at 4000 g for 10 min, the cell pellets were resuspended and stained with propidium iodide (PI) using the DNA Prep Coulter Reagent Kit (BECKMAN-COULTER) at a final concentration of 10^6 cells/ml.
Samples were analyzed using an EPICS XL flow cytometer (BECKMAN COULTER) equipped with an argon laser at 15 mW. PI-stained cells were analyzed using a 488 mn excitation. A 620 nm band pass filter was put on the red fluorescence of PI. Computerized gating was applied on the side and forward scatter to exclude very small debris and on pulse width and integral peak of red fluorescence to eliminate aggregates. All samples were analyzed at a flow rate lower than 100 events per second and with a sheath pressure of 30 psi.

Mcl-1 mRNA = test: RT-PCR of Mcl-1 mRNA in SKOV3 cells; format: cell-based, human; details: 72 h after transfection, FIG. 11A
Experimental: as §2

Mcl-1 protein = test: Western blot of Mcl-1 protein expression in SKOV3 cells; format: cell-based, human; details: FIG. 11B
Experimental: as §2
Cells were rinsed with ice cold PBS and lysed in 150 mM NaCl, 50 mM Tris-HCl pH 8, 1% Triton X100, 4 mM PMSF, 2 mM Aprotinin, 5 mM EDTA, 10 mM NaF, 10 mM NaPPi, 1 mM Na3VO4 for 30 min on ice. Lysates were clarified by centrifugation at 10000 g for 10 min at 4° C. and protein concentrations were determined using the Bradford assay (BIO-RAD). Equal amounts of total cellular protein (20 μg) were resolved in a Bis-tris-HCL buffered (pH 6.4) 4-12% polyacrylamide gel (NuPAGE® Novex® 4-12% Bis-tris gel, INVITROGEN) for 35 min at 200V and electrophoretically transferred on a PVDF membrane (MILLIPORE) for 75 min at 30V. The membrane was blocked for 1 hour at room temperature in T-TBS (132 mM NaCl, 20 mM Tris-HCl pH 7.6, 0.05% Tween 20) supplemented with 5% non-fat dry milk. […] After 3 washes with T-TBS and one with TBS, the immunoreactivity was detected by enhanced chemiluminescence (ECL kit, AMERSHAM).

| Compound | caspase 3 activation and PARP cleavage after 24 h exposure to cisplatin (SKOV3 cells [1]) | effect on mice survival [2] | Bcl-XL protein expression 24 hours after exposure to cisplatin (Bcl-XL protein; 72 hours after siRNA transfection, cisplatin 5 and 20 μg/ml, FIG. 9) | cell mortality / cell cycle after several days (SKOV3 cells [3]; SKOV3 cells, cisplatin 5 and 20 μg/ml) | cell death (morphology, FACS analysis of the cell cycle) (SKOV3 cells [3]; SKOV3 cells) | Mcl-1 mRNA expression (RT-PCR) (Mcl-1 mRNA) | cytotoxic effect on SKOV3 cells (SKOV3 cells [3]; 50 nM each siRNA, absence of cisplatin, FIG. 12) | cytotoxic effect of each siRNA (SKOV3 cells [3]; SKOV3 cells, FIGS. 13 and 14) | cellular and nuclear morphologies and cell cycle versus untransfected SKOV3 cells (SKOV3 cells [3]) | Mcl-1 protein expression after 72 hours (Mcl-1 protein) | effect of various concentrations on Bcl-XL protein expression (Bcl-XL protein; 72 h after transfection, FIG. 3) |
| --- | --- | --- | --- | --- | --- | --- | --- | --- | --- | --- | --- |
| N.N.[Cl][Pt][Cl] [cisplatin, cis-diamino-dichloro-platinum II, reference compound] | no sign of apoptosis | does not improve survival | no effect | only a transient arrest in cell cycle progression | low level or no cell death | – | – | – | – | – | – |
| siMcl-1: Mcl-1 specific siRNA; sense 5′-gugccuuuguggcuaaacatt-3′ (SEQ ID NO: 7), anti-sense 5′-uguuuagccacaaaggcacct-3′ (SEQ ID NO: 8) (sense GUGCCUUUGUGGCUAAACATT; antisense UGUUUAGCCACAAAGGCACCT; chemistry not given here) | – | – | – | – | – | almost completely | no cytotoxic effect | slight cytoxic effect | no difference | disappeared totally | – |
| control siRNA: control siRNA without homology to relevant human genes; sense SEQ ID NO: 9, anti-sense SEQ ID NO: 10 (sense GACGUGGGACUGAAGGGGUTT; antisense ACCCCUUCAGUCCCACGUCTT; chemistry not given here) [reference compound] | – | does not increase the mice survival | – | – | no changes | – | – | – | no difference | – | No effect |
